Assays:
[1] = tested on: immature dendritic cells; assay: Cytokine production in immature dendritic cells; format: cell-based; conditions: compared to the negative control, MRX518 10^7/ml, LPS 100 ng/ml, FIG. 4
Experimental: A monocyte population was isolated from peripheral blood mononuclear cells (PBMCs). The monocyte cells were subsequently differentiated into immature dendritic cells. The immature dendritic cells were plated out at 200,000 cells/well and incubated with MRX518 at a final concentration of 10^7/ml, with the optional addition of LPS at a final concentration of 100 ng/ml. The negative control involved incubating the cells with RPMI media alone and positive controls incubated the cells with LPS at a final concentration of 100ng/ml. The cytokine content of the cells was then analysed.

[2] = tested on: RENCA tumour cells; assay: Antitumor activity, RENCA model; format: in vivo, mouse; conditions: D18 and D22, compared to untreated and vehicle groups, FIG. 3B
Experimental: Treatment schedule—The start of first dosing was considered as D0. On D0, non-engrafted mice were randomized according to their individual body weight into groups of 9 mice using Vivo manager® software (Biosystemes, Couternon, France). On D0, the mice received vehicle (culture medium) or bacterial strain (2×10^8 in 200 μL, PO). On D14, all mice were engrafted with RENCA tumour cells injected SC into the ventral surface of the lower flank as described below. Treatment with anti-CTLA-4 (10 mg/kg, IP) and anti-PDL1 (clone 10F.9G2, 10 mg/kg) was initiated when tumours reached a volume of 50-70 mm3.
Orthotopic induction of RENCA tumor cells in animals by SC injection—On D14, one million (1×10^6) RENCA tumor cells in 50 ΞL RPMI 1640 medium were transplanted via SC injection into the ventral surface of the lower flank of mice.
Euthanasia - Each mouse was euthanized when it reached a humane endpoint as described in section below, or after a maximum of 6 weeks post start of dosing.
Evaluation of tumour burden at euthanasia—At the time of termination, tumours were collected and their volume evaluated.
Clinical monitoring—The length and width of the tumour was measured twice a week with callipers and the volume of the tumour was estimated by this formula [52]: […]

Compound: lipopolysaccharide [LPS]
- level of IL-6 [1]: increase
- level of TNF-α [1]: increase

Compound: CC(=O)O[C@H]1C(=O)[C@@]2(C)[C@H]([C@H](OC(=O)c3ccccc3)[C@]3(O)C[C@H](OC(=O)[C@H](O)[C@@H](NC(=O)c4ccccc4)c4ccccc4)C(C)=C1C3(C)C)[C@]1(OC(C)=O)CO[C@@H]1C[C@@H]2O [Paclitaxel]
- tumour size [2]: (almost) complete reduction

Source: patent US20240016861A1, “COMBINATION THERAPY FOR TREATING OR PREVENTING CANCER” (4D Pharma Research Limited, priority 2018, published 2024)
